Laboratory results as given in publication PMC5500575, “Identification of Histamine H3 Receptor Ligands Using a New Crystal Structure Fragment-based Method” (Scientific Reports, 2017).
“Also recorded” adds a separate entry of the source.

Target: T1, human histamine H3 receptor (Homo sapiens, UniProt Q9Y5N1)
T1 construct: expressed in transfected cells; host or cells: tsA201 cells (transformed HEK-293), transient transfection
Assay: IP-One (HTRF IP1 accumulation) assay, H3 receptor co-expressed with chimeric Gqi5 in tsA201 cells
Format: cell-based
Conditions: antagonist mode, 20 µM compound, EC80 histamine
Description: Human tsA201 cells, a transformed HEK-293 cell line[70], were cultivated in Dulbecco’s Modified Eagle’s Medium (DMEM) with GlutaMAX, supplemented with 10% foetal bovine serum, penicillin 100 U/ml and streptomycin 100 µg/ml. Subconfluent cells grown in a 100 mm dish were transfected with 5 μg DNA using the Polyfect transfection reagent using the protocol of the manufacturer (Qiagen, West Sussex, UK), however with half of the recommended PolyFect volumes. Co-transfections (ratio 4:1) were performed with either constructs expressing the human histamine H3 receptor together with an empty vector and chimeric G protein Gqi5, respectively.
We applied the highly sensitive high-throughput homogeneous time-resolved fluorescence (HTRF) technology[71] for detection of IP-One generation using the Cisbio IP-One Tb assay kit, exactly as previously described. In brief, on the day of assay, ligand solutions were prepared in ligand buffer (Hank’s Balanced Salt Solution (HBSS) containing 20 mM HEPES pH 7.4, 1 mM CaCl2, 1 mM MgCl2, 40 mM LiCl)) and added to the wells of a 384-well OptiPlate (PerkinElmer, Waltham, USA) in triplicates. When testing for antagonist activity the ligand buffer was supplemented with an EC80 concentration of histamine, and we used a final compound concentration of 20 µM and 2 µM for the first (virtual hits) and second (analogues) screening, respectively. Cell suspensions were added and incubated with ligands for 1 hour, followed by the addition of detection solution (IP-One Tb conjugate & Lysis Buffer +2.5% anti-IP1 cryptate Tb conjugate +2.5% IP1-d2 conjugate. 38:1:1) and incubation in the dark for one hour at room temperature. The plate was read on an EnVision 2104 Multilabel Reader (PerkinElmer) by exciting the wells with light of 340 nm and measuring the emission at 615 nm and 665 nm. The fluorescence resonance energy transfer ratios (665 nm/615 nm) were converted to IP1 concentrations by interpolating values from an IP1 standard curve generated from an IP1 calibration stock, provided by the manufacturer (Cisbio).
Data were analysed using GraphPad Prism 6 (GraphPad Software, San Diego, CA, USA). Concentration-response curves were fitted by nonlinear regression to equation (1):1 R=Rmax+Rmax−Rmin/1+10^(logIC50−X)∗nH where X is the logarithm of the concentration, R is the response, R max is the maximal response, R min is the minimal response, IC50 is the concentration giving half-maximum reduction of the response, and nH is the Hill coefficient, which describes the steepness of the curve. IP-One assay results are reported either as raw FRET in arbitrary units, as IP1 concentration (nM) or as fold over basal (normalized to the basal level of IP1 in ligand buffer [IP1]/[IP1]basal). The Z′-factors were calculated using equation (2):2 Z′=1−3σc++3σc−/|µc+−µc−|

T1 sequence (Q9Y5N1 whole entry): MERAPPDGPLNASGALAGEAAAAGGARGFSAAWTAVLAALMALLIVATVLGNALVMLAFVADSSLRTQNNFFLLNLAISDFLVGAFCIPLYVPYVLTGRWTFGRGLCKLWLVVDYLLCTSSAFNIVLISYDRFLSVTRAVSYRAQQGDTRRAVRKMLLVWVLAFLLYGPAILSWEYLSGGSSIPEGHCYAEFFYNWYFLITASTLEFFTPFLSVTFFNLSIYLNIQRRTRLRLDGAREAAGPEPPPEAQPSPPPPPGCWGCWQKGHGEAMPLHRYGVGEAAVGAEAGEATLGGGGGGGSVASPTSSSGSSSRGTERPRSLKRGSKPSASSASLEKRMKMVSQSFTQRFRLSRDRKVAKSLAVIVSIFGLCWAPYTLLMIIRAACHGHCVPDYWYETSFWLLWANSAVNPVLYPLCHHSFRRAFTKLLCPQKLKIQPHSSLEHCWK

| Compound | Result of first pharmacological assaying (pharmacophore screening hits) |
| --- | --- |
| Cc1ccc(CN2CCCN(C(=O)CCSCc3cn4ccccc4n3)CC2)cc1 [Compound 44] | seemingly active |
| Cc1ccc2c(c1)c1c3n2CCN(CC(O)CNCc2ccccc2)C3CCC1 (centres unmarked) [Compound 42] | antagonist hits |
| CCN(Cc1nc2ccccc2[nH]1)CC1CCCN(CCc2cccc(OC)c2)C1 (centres unmarked) [Compound 9] | seemingly active |
| CCCCN1CN(CCCN2CCCCC2)Cn2c1nc1ccccc12 [Compound 35] | antagonist hits |
| Cc1nc(N2CCN(c3ncc[nH]c3=O)CC2)c2sccc2n1 [Compound 21] | antagonist hits |
| Cc1nccn1-c1ccc(CNCc2cccc(C#N)c2)cc1F [Compound 20] | borderline activity |

Same assay, conditions: antagonist mode, in the presence of EC80 of histamine

| Compound | IC50 [µM] | pIC50 ± SEM |
| --- | --- | --- |
| Cc1ccc2c(c1)c1c3n2CCN(CC(O)CNCc2ccccc2)C3CCC1 (centres unmarked) [Compound 42] | 42.1 | 4.38±0.11 |
| Cc1ccc2c(c1)c1c3n2CCN(CC(O)CN2CCN(C)CC2)C3CCC1 (centres unmarked) [Compound 75] | 121 | 3.92±0.18 |
| CCCCN1CN(CCCN2CCCCC2)Cn2c1nc1ccccc12 [Compound 35] | 3.3 | 5.5 ± 0.27 |
| Cc1nc(N2CCN(c3ncc[nH]c3=O)CC2)c2sccc2n1 [Compound 21] | 20.9 | 4.68±0.10 |
| CCN1CCNC(=O)C1CC(=O)N1CCc2[nH]c3c(C)cccc3c2C1 (centres unmarked) [Compound 64] | 261 | 3.58±0.17 |
| CCCCN1CN(CCCN(C)c2ccccc2)Cn2c1nc1ccccc12 [Compound 68] | 22 | 4.66±0.20 |

Target: T2, human H3 receptor (Homo sapiens, UniProt Q9Y5N1)
T2 construct: expressed in transfected cells; host or cells: HEK-293T cells, membranes
Assay: [3H]N-α-methylhistamine radioligand competition binding assay
Conditions: 0.3 nM [3H]N-α-methylhistamine; Cheng-Prusoff with Kd 0.15 nM
Description: HEK-239T cells were grown to 70% confluency in 150 mm cell culture dishes and transfected with 8 µg human H3 receptor using the Polyfect transfection reagent as previously described. After 48 hours, cells were washed from each cell culture dish with Dulbecco’s phosphate buffered saline and harvested using a cell scraper. The resulting cell suspension was then centrifuged and resuspended in 500 µL lysis buffer (50 mM Tris-HCl, pH 7.4). The cell lysate was centrifuged at 16,000 g for 20 minutes at 4 °C. The resultant membrane pellets were stored at −80 °C until use. Each pellet was resuspended in 500 µL binding buffer (50 mM Tris-HCl, 0.5 mM EDTA, pH 7.4), homogenized and centrifuged at 16,000 g for 15 minutes at 4 °C, and subsequently resuspended in 15 mL of binding buffer to a desired protein concentration of approximately 0.2 mg/mL as determined by the method of Bradford[73]. The membrane solution (30 µg protein per well) was incubated for 90 minutes in 250 µL of binding buffer, with or without compound, together with 0.3 nM [^3H]N-α-methylhistamine at room temperature. Non-specific binding was defined as the radioligand bound to membrane solution incubated with 10 µM histamine. The binding reaction was terminated by rapid filtration through Whatman GF/C unifilters (PerkinElmer), and washed four times with ice-cold wash buffer (50 mM Tris-HCl, 10 mM MgCl2, 0.1 mM EDTA, pH 7.4) using a 96-well Packard FilterMate cell harvester (PerkinElmer). Finally, Microscint 0 scintillation liquid (PerkinElmer) was added to the dried filters, and the radioactivity quantified in a Packard TopCount NXT microplate Scintillation Counter (PerkinElmer).
The binding data was fitted by nonlinear regression to equation (3):3 Y=Ymax+Ymax−Ymin/1+10^X−logIC50 where X is the logarithm of the concentration, Y is the specific binding, Y max is the maximal specific binding, Y min is the minimal specific binding, and IC50 is the concentration giving half-maximum reduction in specific binding.

T2 sequence (Q9Y5N1 whole entry): as above

| Compound | Ki [µM] |
| --- | --- |
| Cc1ccc(CN2CCCN(C(=O)CCSCc3cn4ccccc4n3)CC2)cc1 [Compound 44] | 2.82 |
| Cc1ccc2c(c1)c1c3n2CCN(CC(O)CNCc2ccccc2)C3CCC1 (centres unmarked) [Compound 42] | 14.8 |
| Cc1ccc2c(c1)c1c3n2CCN(CC(O)CN2CCN(C)CC2)C3CCC1 (centres unmarked) [Compound 75] | 4.82 |
| CCN(Cc1nc2ccccc2[nH]1)CC1CCCN(CCc2cccc(OC)c2)C1 (centres unmarked) [Compound 9] | 1.75 |
| CCCCN1CN(CCCN2CCCCC2)Cn2c1nc1ccccc12 [Compound 35] | 1.75 |
| Cc1nc(N2CCN(c3ncc[nH]c3=O)CC2)c2sccc2n1 [Compound 21] | > 50 |
| Cc1nccn1-c1ccc(CNCc2cccc(C#N)c2)cc1F [Compound 20] | 4.24 |
| CCN1CCNC(=O)C1CC(=O)N1CCc2[nH]c3c(C)cccc3c2C1 (centres unmarked) [Compound 64] | 86.7 |
| CCCCN1CN(CCCN(C)c2ccccc2)Cn2c1nc1ccccc12 [Compound 68] | > 300 |

Same assay, conditions: 0.3 nM [3H]N-α-methylhistamine; ± SEM

| Compound | Affinity (pKi) |
| --- | --- |
| Cc1ccc(CN2CCCN(C(=O)CCSCc3cn4ccccc4n3)CC2)cc1 [Compound 44] | 5.55±0.06 |
| Cc1ccc2c(c1)c1c3n2CCN(CC(O)CNCc2ccccc2)C3CCC1 (centres unmarked) [Compound 42] | 4.83±0.08 |
| Cc1ccc2c(c1)c1c3n2CCN(CC(O)CN2CCN(C)CC2)C3CCC1 (centres unmarked) [Compound 75] | 5.32±0.04 |
| CCN(Cc1nc2ccccc2[nH]1)CC1CCCN(CCc2cccc(OC)c2)C1 (centres unmarked) [Compound 9] | 5.76±0.25 |
| CCCCN1CN(CCCN2CCCCC2)Cn2c1nc1ccccc12 [Compound 35] | 5.76 ± 0.05 |
| Cc1nccn1-c1ccc(CNCc2cccc(C#N)c2)cc1F [Compound 20] | 5.37±0.12 |
| CCN1CCNC(=O)C1CC(=O)N1CCc2[nH]c3c(C)cccc3c2C1 (centres unmarked) [Compound 64] | 4.06±0.11 |

Same assay, conditions: 0.3 nM radioligand; NSB defined with 10 µM histamine

| Compound | Competition with [3H]N-α-methylhistamine binding (in words) |
| --- | --- |
| Cc1ccc(CN2CCCN(C(=O)CCSCc3cn4ccccc4n3)CC2)cc1 [Compound 44] | unable to outcompete radiolabeled ligand to NSB levels; also recorded: unable to lower the binding of [^3H]N-α-methylhistamine to non-specific binding levels |
| Cc1ccc2c(c1)c1c3n2CCN(CC(O)CNCc2ccccc2)C3CCC1 (centres unmarked) [Compound 42] | unable to outcompete radiolabeled ligand to NSB levels; also recorded: unable to lower the binding of [^3H]N-α-methylhistamine to non-specific binding levels |
| Cc1nc(N2CCN(c3ncc[nH]c3=O)CC2)c2sccc2n1 [Compound 21] | little to no effect on radiolabeled ligand binding; also recorded: unable to compete with binding |
| CCCCN1CN(CCCN(C)c2ccccc2)Cn2c1nc1ccccc12 [Compound 68] | little to no effect on radiolabeled ligand binding; also recorded: unable to compete with binding |

Same assay, conditions: possibly due to compound breakdown

| Compound | Change of potency upon repeated experimentation |
| --- | --- |
| CCN(Cc1nc2ccccc2[nH]1)CC1CCCN(CCc2cccc(OC)c2)C1 (centres unmarked) [Compound 9] | continued decrease in potency observed upon repeated experimentation |
| Cc1nccn1-c1ccc(CNCc2cccc(C#N)c2)cc1F [Compound 20] | continued decrease in potency observed upon repeated experimentation |

Target: H3 receptor
Assay: not given
Set-up: method as in ChEMBL [64]
Conditions: known H3 ligand; ref ChEMBL [64]; cited from earlier work

| Compound | Affinity (pKi) of most similar ChEMBL ligand |
| --- | --- |
| OC1(c2ccccn2)CCCN(c2nnc(N3CCC(N4CCCCC4)CC3)s2)C1 (centres unmarked) [ChEMBL 2048591] | 7.3 |
| CN1CCC(C(=O)c2cc3cc(Cl)ccc3[nH]2)CC1 [ChEMBL 186456] | 5.5 |
| CNCc1cc(C#CCCN2CCNC(=O)C2)ccc1Oc1ccc(SC)cc1 [ChEMBL 237514] | 6.1 |
| CN(C)CCCNc1c2c(nc3ccccc13)CCCCC2 [ChEMBL 65849] | 8.0 |
| c1ccc2c(c1)nc1n(CCN3CCCCC3)cnn21 [ChEMBL 1923529] | 6.2 |
| COc1cccc(OCCN2CCC(N3CCCCC3)CC2)c1 [ChEMBL 460313] | 6.9 |

Target: mouse H3 receptor
Assay: not given
Conditions: Gqi5, Ca2+ release; cited from earlier work

| Compound | EC50 [µM] |
| --- | --- |
| NCCc1c[nH]cn1 [histamine] | 0.0218 |
